Experimental data reported in patent publication US20220259593A1, “CONTROL OF MAMMALIAN GENE DOSAGE USING CRISPR” (The Regents of the University of California, priority 2019, published 2022).

How the values were obtained:
K562 CRISPRi cells [1] = assay: Perturb-seq pooled growth measurement (sgRNA counts, growth phenotype γ, relative activity); assay type: cell-based, human; conditions: for gamma_day5 / gamma_day10: pooled growth phenotype γ of the Perturb-seq sgRNA; for gamma_day5: day 5, K562 CRISPRi cells; for gamma_day10: day 10, K562 CRISPRi cells; for relative_activity_day5: γ relative to perfectly matched sgRNA (_00) of the same gene, day 5
Procedure, shortened: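 sgRNA abundance was sequenced from genomic DNA of the same transduced population sampled on days two, seven and twelve. Phenotype γ compares normalized day seven and twelve counts with day two. Day-seven values (five days of growth) define relative sgRNA activity.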

K562 CRISPRi cells [2] = assay: as above; assay type: cell-based, human; conditions: γ relative to perfectly matched sgRNA (_00) of the same gene, day 10

Substance	gamma_day5 (K562 CRISPRi cells [1])	gamma_day10 (K562 CRISPRi cells [1])	relative_activity_day5 (K562 CRISPRi cells [1])	relative_activity_day10 (K562 CRISPRi cells [2])
HSPA9_ −_137911079.23-P1P2_07 (guide GGAGCTGCGGGATGCGGTGG; listed as DNA, chemistry not fully specified)	−0.8109	−0.5036	0.8537	0.8547
POLR1D_ + _28196016.23-P1_00 (guide GGGAAGCAAGGACCGACCGA; listed as DNA, chemistry not fully specified)	−0.7594	−0.6213	1	1
HSPE1_ + _198365089.23-P1P2_00 (guide GGAGACTCGCAGTCCGGCCC; listed as DNA, chemistry not fully specified)	−0.7018	−0.5672	1	1
GINS1_ −_25388381.23-P1P2_06 (guide GGACTAGAACGGAAGGAGTG; listed as DNA, chemistry not fully specified)	−0.9794	−0.6548	0.9801	0.9191
DUT_ + _48624411.23-P1P2_07 (guide GCGAGCGAGGAGCCCACCGG; listed as DNA, chemistry not fully specified)	−0.7197	−0.4998	0.9077	0.774
CDC23_ −_137548987.23-P1P2_08 (guide GACAGCCATCGGGACCATGG; listed as DNA, chemistry not fully specified)	−0.9559	−0.5501	0.8128	0.8355
BCR_ + _23523092.23-P1P2_04 (guide GCGCGCGGAGCCCGTCTCAG; listed as DNA, chemistry not fully specified)	−0.7401	−0.418	0.8783	0.8249
GATA1 −_48645022.23-P1P2_12 (guide GTGAGCTTGCCACATCCGCA; listed as DNA, chemistry not fully specified)	−0.1084	−0.06327	0.1126	0.1028
HSPA5_ + _128003624.23-P1P2_01 (guide GAACCGAGTAGGCGACGGTG; listed as DNA, chemistry not fully specified)	−0.6373	−0.3748	0.8525	0.8774
DUT_ + _48624411.23-P1P2_08 (guide GCGAGCGAGGAGGCCACCGG; listed as DNA, chemistry not fully specified)	−0.7725	−0.5862	0.9742	0.9077
HSPA9_ −_137911079.23-P1P2_00 (guide GGAGCTGCGCGATGCGGTGG; listed as DNA, chemistry not fully specified)	−0.95	−0.5892	1	1
COX11_ + _53045977.23-P1P2_03 (guide GGCTCTGTCGTCCTGGATGG; listed as DNA, chemistry not fully specified)	−0.1719	−0.2875	0.9463	0.9622
RPL9_ + _39460483.23-P1P2_00 (guide GGATGTTTCTGTGCTCGTGG; listed as DNA, chemistry not fully specified)	−1.113	−0.6699	1	1
POLR1D_ + _28196016.23-P1_03 (guide GGTAAGCAAGGACCGACCGA; listed as DNA, chemistry not fully specified)	−0.8471	−0.6833	1.116	1.1
BCR_ + _23523092.23-P1P2_15 (guide GCGCGCGGGGCCCGTCGCAG; listed as DNA, chemistry not fully specified)	−0.2314	−0.1773	0.2747	0.3498
MTOR_ + _11322547.23-P1P2_06 (guide GGGCAGGGGGGCTGAAGCGG; listed as DNA, chemistry not fully specified)	−0.3933	−0.2989	0.5723	0.532
SEC61A1_ −_127771295.23-P1_03 (guide GGTACTGACGTGTCTCTCGG; listed as DNA, chemistry not fully specified)	−0.5031	−0.3419	0.5469	0.6074

Substance	gamma_day5 (K562 CRISPRi cells [1])	gamma_day10 (K562 CRISPRi cells [1])	relative_activity_day5 (K562 CRISPRi cells [1])	relative_activity_day10 (K562 CRISPRi cells [2])
GINS1_ −_25388381.23-P1P2_03 (guide GGACTATAACGAAAGGAGTG; listed as DNA, chemistry not fully specified)	−0.7467	−0.4797	0.7472	0.6733
POLR1D_ + _28196016.23-P1_01 (guide GGGAAGCCAGGACCGACCGA; listed as DNA, chemistry not fully specified)	−0.6945	−0.5416	0.9145	0.8718
DUT_ + _48624411.23-P1P2_01 (guide GCCAGCGAGGAGACCACCGG; listed as DNA, chemistry not fully specified)	−0.7924	−0.6032	0.9993	0.9341
HSPE1_ + _198365089.23-P1P2_01 (guide GGAGACACGCAGTCCGGCCC; listed as DNA, chemistry not fully specified)	−0.616	−0.4834	0.8777	0.8523
RAN_ + _131356438.23-P1P2_03 (guide GGGGGTCGCTGCGCTTAGGG; listed as DNA, chemistry not fully specified)	−0.2162	−0.197	1.095	1.22
RPS15_ −_1438413.23-P1P2_07 (guide GACCAAAGCGGTCTCTTCTG; listed as DNA, chemistry not fully specified)	−0.5221	−0.3074	0.8404	0.8176
HSPA9_ −_137911079.23-P1P2_02 (guide GGAGTTGCGCGATGCGGTGG; listed as DNA, chemistry not fully specified)	−0.6504	−0.4027	0.6846	0.6835
GNB2L1_ + _180670873.23-P1P2_13 (guide GTGCAAGGCGGCGGCGGGAG; listed as DNA, chemistry not fully specified)	−0.2097	−0.2074	0.7211	0.6791
RPS15_ −_1438413.23-P1P2_00 (guide GACCAAAGCGATCTCTTCTG; listed as DNA, chemistry not fully specified)	−0.6212	−0.376	1	1
CDC23_ −_137548987.23-P1P2_00 (guide GACAGCCACCGGGACCATGG; listed as DNA, chemistry not fully specified)	−1.176	−0.6584	1	1
EIF2S1_ −_67827080.23-P1P2_00 (guide GAGCGAAGCGCACGCTGAGG; listed as DNA, chemistry not fully specified)	−0.9047	−0.5155	1	1
CAD_ + _27440280.23-P1P2_03 (guide GGCTGGTGAGAAGCCGGGCG; listed as DNA, chemistry not fully specified)	−0.7687	−0.6267	0.9965	0.9162
HSPA5_ + _128003624.23-P1P2_06 (guide GAGCCGAGTAGACGACGGTG; listed as DNA, chemistry not fully specified)	−0.1192	−0.09835	0.1594	0.2302
BCR_ + _23523092.23-P1P2_07 (guide GCGCGCGGGGCTCGTCTCAG; listed as DNA, chemistry not fully specified)	−0.8707	−0.4869	1.033	0.9607
POLR2H_ + _184081251.23-P1P2_08 (guide GGGGCCACGCGAGCAGCAGA; listed as DNA, chemistry not fully specified)	−0.5208	−0.334	0.4532	0.5225
EIF2S1_ −_67827080.23-P1P2_01 (guide GAGCGAAACGCACGCTGAGG; listed as DNA, chemistry not fully specified)	−0.4467	−0.3032	0.4937	0.5881
